Results reported in PMC9081086, “Stapling strategy enables improvement of antitumor activity and proteolytic stability of host-defense peptide hymenochirin-1B” (RSC Advances, 2018).
Positions of bridges follow the written chain, without caps; N, C: chain ends. Non-standard residues stand in square brackets, D forms with d. Residues, ends and D or L forms follow the SMILES beside them. R8 = C=CCCCCCC[C@@](C)(N)C(=O)O; S5 = C=CCCC[C@](C)(N)C(=O)O

Legend:
[1] = test system: human normal liver cell LO-2; assay: MTT toxicity against normal cells, LO-2; assay type: cell-based; settings: 96 h
Description: (§1) Anti-tumor activity was evaluated by the standard MTT assay with a slight modification measuring the median inhibitory concentration (IC50) values.[35] HCT-116 cells, HepG2 cells and A549 cells were plated in triplicate wells into a 96-well plate at 5 × 10^3/well and cultured routinely for 24 h. Cells were incubated with increasing concentrations of hymenochirin-1B and its analogs (0.1–30 μM) and continued to culture with DMEM plus 10% FBS at 37 °C and 5% CO2. After being incubated for 96 h, the absorbance A value was determined by MTT at 540 nm. The untreated HCT-116 cells, HepG2 cells and A549 cells were used as control. Each experiment was performed in duplicate. The inhibitory rate was calculated according to the following formula: inhibitory rate = (a value of the control group − a value of the study group)/a value of the control group × 100%.
(§2) To further research the selectivity of these peptides towards cancer cells over normal cells. The growth-inhibitory activities of peptides were evaluated using the 3-(4,5-dimethylthiazol-2-yl)-2,5-diphenyltetrazolium bromide (MTT) assay against three normal cells,[35] namely, human normal liver cell LO-2, human normal Lung cell BEAS-2 and human normal kidney cell 293 T (Table S2 ^†). The experiments procedure was performed just same as growth inhibition of the peptides against tumor cells. […] It might be due to the higher averaged hydrophobicity produced by six or nine additional methylene and two olefinic carbons to the peptide to increase toxicity to human normal cells. This situation may be resolved through the addition of polar character and glycosylation into the sequence to decrease the averaged hydrophobicity to improve the selectivity of these peptides towards cancer cells over normal cells. These modifications of these peptides are under way, and the present study was focused on the improved anti-tumor activity of template peptide hymenochirin-1B.

[2] = test system: human normal Lung cell BEAS-2; assay: MTT toxicity against normal cells, BEAS-2B; assay type: cell-based; settings: 96 h
Description: as §1, §2

[3] = Circular dichroism, α-helicity; assay type: physicochemical; settings: CD, TFE/water (1:1), 50 μM peptide, 25 °C, 1 mm cuvette, calculated from [θ]222
Description: The linear and stapled peptides were dissolved in the trifluoroethanol (TFE) and water (1 : 1) to a final concentration of 50 μM, respectively. The CD spectra were obtained with 1 mm quartz cuvette on Jasco-815 spectropolarimeter at 25 °C. The measurement parameters were set up as follows: wavelength, 185–260 nm; step resolution, 0.5 nm; speed, 20 nm min^−1. All spectra were converted to a uniform scale of molar ellipticity after background subtraction. The curves were smoothed using standard parameters. The ellipticity in the acquired CD spectra was converted to the molar ellipticity using the equation: [θ] = θ/(10 × c × l), where, [θ] is the Molar ellipticity (deg cm^2. d mol^−1), θ is the observed ellipticity corrected for the buffer at a given wavelength (m deg), c is the molar concentration and l is the path length (cm). The helicity of each peptide was calculated as described in a literature based on the ellipticity of the peptide's spectrum at 222 nm and the number of amino acids in the peptide sequence.
Circular dichroism (CD) spectroscopy was used to investigate the secondary structures of the stapled and template peptides to probe structural changes induced by conformation constraint in a membrane-like milieu, including […] (TFE) and water (1 : 1). […] (Table 1, ESI ^†).

[4] = test system: human normal kidney cell 293 T; assay: MTT toxicity against normal cells, 293T; assay type: cell-based; settings: 96 h
Description: as §1, §2

Helicity (%) [3] [%]	Compound	IC50 (μM) LO-2, toxicity against normal cells [1] [µM]	IC50 (μM) BEAS-2B, toxicity against normal cells [2] [µM]	IC50 (μM) 293T, toxicity against normal cells [4] [µM]
49.0	CC[C@H](C)[C@H](N)C(=O)N[C@@H](CCCCN)C(=O)N[C@@H](CC(C)C)C(=O)N[C@@H](CO)C(=O)N[C@@]1(C)CCCC=CCCC[C@@](C)(C(=O)N[C@@H](CC(N)=O)C(=O)N[C@@H](CC(C)C)C(=O)N[C@@H](CCCCN)C(=O)N[C@@H](CCCCN)C(=O)N[C@H](C(=O)N[C@@H](CC(C)C)C(=O)N[C@@H](CCCCN)C(=O)NCC(=O)N[C@@H](C)C(=O)N[C@H](C(=O)N[C@@H](CCCCN)C(=O)NCC(=O)N[C@@H](C)C(=O)N[C@H](C(=O)N[C@@H](C)C(=O)N[C@H](C(=O)N[C@@H](C)C(=O)N[C@@H](CCCCN)C(=O)N[C@@H](CCSC)C(=O)N[C@H](C(N)=O)C(C)C)C(C)C)[C@@H](C)CC)[C@@H](C)CC)C(C)C)NC(=O)[C@H](CCCCN)NC(=O)[C@H]([C@@H](C)O)NC(=O)[C@H](CCC(=O)O)NC1=O [H-1] (H-IKLS[S5]ETK[S5]NLKKVLKGAIKGAIAVAKMV-NH2; staple 5-9)	7.80 ± 0.21	9.61 ± 0.35	5.82 ± 0.45
65.7	CC[C@H](C)[C@H](N)C(=O)N[C@@H](CCCCN)C(=O)N[C@@H](CC(C)C)C(=O)N[C@@H](CO)C(=O)N1CCC[C@H]1C(=O)N[C@@H](CCC(=O)O)C(=O)N[C@H](C(=O)N[C@@H](CCCCN)C(=O)N[C@@H](CC(=O)O)C(=O)N[C@]1(C)CCCCCCC=CCCC[C@@](C)(C(=O)N[C@@H](C)C(=O)N[C@H](C(=O)N[C@@H](CCCCN)C(=O)NCC(=O)N[C@@H](C)C(=O)N[C@H](C(=O)N[C@@H](C)C(=O)N[C@H](C(=O)N[C@@H](C)C(=O)N[C@@H](CCCCN)C(=O)N[C@@H](CCSC)C(=O)N[C@H](C(N)=O)C(C)C)C(C)C)[C@@H](C)CC)[C@@H](C)CC)NC(=O)[C@H](CCCCN)NC(=O)[C@H](CC(C)C)NC(=O)[C@H](C(C)C)NC(=O)[C@H](CCCCN)NC(=O)[C@H](CCCCN)NC(=O)[C@H](CC(C)C)NC1=O)[C@@H](C)O [H-3] (H-IKLSPETKD[R8]LKKVLK[S5]AIKGAIAVAKMV-NH2; staple 10-17)	7.61 ± 0.43	7.95 ± 0.36	4.58 ± 0.34
64.9	CC[C@H](C)[C@H](N)C(=O)N[C@@H](CCCCN)C(=O)N[C@@H](CC(C)C)C(=O)N[C@@H](CO)C(=O)N1CCC[C@H]1C(=O)N[C@@H](CCC(=O)O)C(=O)N[C@H](C(=O)N[C@@H](CCCCN)C(=O)N[C@@H](CC(=O)O)C(=O)N[C@@H](CC(N)=O)C(=O)N[C@@H](CC(C)C)C(=O)N[C@@H](CCCCN)C(=O)N[C@@H](CCCCN)C(=O)N[C@H](C(=O)N[C@@H](CC(C)C)C(=O)N[C@@H](CCCCN)C(=O)NCC(=O)N[C@@H](C)C(=O)N[C@H](C(=O)N[C@]1(C)CCCCCCC=CCCC[C@@](C)(C(=O)N[C@@H](CCSC)C(=O)N[C@H](C(N)=O)C(C)C)NC(=O)[C@H](C)NC(=O)[C@H](C(C)C)NC(=O)[C@H](C)NC(=O)[C@H]([C@@H](C)CC)NC(=O)[C@H](C)NC(=O)CNC1=O)[C@@H](C)CC)C(C)C)[C@@H](C)O [H-6] (H-IKLSPETKDNLKKVLKGAI[R8]GAIAVA[S5]MV-NH2; staple 20-27)	49.77 ± 0.22	46.58 ± 0.42	60.11 ± 0.35
65.9	CC[C@H](C)[C@H](N)C(=O)N[C@@H](CCCCN)C(=O)N[C@@H](CC(C)C)C(=O)N[C@@H](CO)C(=O)N1CCC[C@H]1C(=O)N[C@@H](CCC(=O)O)C(=O)N[C@H](C(=O)N[C@@H](CCCCN)C(=O)N[C@@H](CC(=O)O)C(=O)N[C@@H](CC(N)=O)C(=O)N[C@@H](CC(C)C)C(=O)N[C@@H](CCCCN)C(=O)N[C@@H](CCCCN)C(=O)N[C@H](C(=O)N[C@@H](CC(C)C)C(=O)N[C@@H](CCCCN)C(=O)NCC(=O)N[C@@H](C)C(=O)N[C@H](C(=O)N[C@@H](CCCCN)C(=O)NCC(=O)N[C@@]1(C)CCCC=CCCC[C@@](C)(C(=O)N[C@@H](CCCCN)C(=O)N[C@@H](CCSC)C(=O)N[C@H](C(N)=O)C(C)C)NC(=O)[C@H](C(C)C)NC(=O)[C@H](C)NC(=O)[C@H]([C@@H](C)CC)NC1=O)[C@@H](C)CC)C(C)C)[C@@H](C)O [H-7] (H-IKLSPETKDNLKKVLKGAIKG[S5]IAV[S5]KMV-NH2; staple 22-26)	6.52 ± 0.32	7.50 ± 0.32	7.25 ± 0.26
60.5	CC[C@H](C)[C@H](N)C(=O)N[C@@H](CCCCN)C(=O)N[C@@H](CC(C)C)C(=O)N[C@@H](CO)C(=O)N1CCC[C@H]1C(=O)N[C@@H](CCC(=O)O)C(=O)N[C@H](C(=O)N[C@@H](CCCCN)C(=O)N[C@@H](CC(=O)O)C(=O)N[C@@H](CC(N)=O)C(=O)N[C@@H](CC(C)C)C(=O)N[C@@H](CCCCN)C(=O)N[C@@H](CCCCN)C(=O)N[C@H](C(=O)N[C@@H](CC(C)C)C(=O)N[C@@H](CCCCN)C(=O)NCC(=O)N[C@@H](C)C(=O)N[C@H](C(=O)N[C@@]1(C)CCCC=CCCC[C@@](C)(C(=O)N[C@H](C(=O)N[C@@H](C)C(=O)N[C@@H](CCCCN)C(=O)N[C@@H](CCSC)C(=O)N[C@H](C(N)=O)C(C)C)C(C)C)NC(=O)[C@H]([C@@H](C)CC)NC(=O)[C@H](C)NC(=O)CNC1=O)[C@@H](C)CC)C(C)C)[C@@H](C)O [H-8] (H-IKLSPETKDNLKKVLKGAI[S5]GAI[S5]VAKMV-NH2; staple 20-24)	24.82 ± 0.44	12.82 ± 0.25	15.58 ± 0.36
–	CC[C@H](C)[C@H](N)C(=O)N[C@@H](CCCCN)C(=O)N[C@@H](CC(C)C)C(=O)N[C@@H](CO)C(=O)N1CCC[C@H]1C(=O)N[C@@H](CCC(=O)O)C(=O)N[C@H](C(=O)N[C@@H](CCCCN)C(=O)N[C@@H](CC(=O)O)C(=O)N[C@@H](CC(N)=O)C(=O)N[C@@H](CC(C)C)C(=O)N[C@@H](CCCCN)C(=O)N[C@@H](CCCCN)C(=O)N[C@H](C(=O)N[C@@H](CC(C)C)C(=O)N[C@@H](CCCCN)C(=O)N[C@@]1(C)CCCC=CCCC[C@@](C)(C(=O)N[C@@H](C)C(=O)N[C@H](C(=O)N[C@@H](C)C(=O)N[C@H](C(=O)N[C@@H](C)C(=O)N[C@@H](CCCCN)C(=O)N[C@@H](CCSC)C(=O)N[C@H](C(N)=O)C(C)C)C(C)C)[C@@H](C)CC)NC(=O)[C@H](CCCCN)NC(=O)[C@H]([C@@H](C)CC)NC(=O)[C@H](C)NC1=O)C(C)C)[C@@H](C)O [H-9] (H-IKLSPETKDNLKKVLK[S5]AIK[S5]AIAVAKMV-NH2; staple 17-21)	8.56 ± 0.32	7.72 ± 0.36	8.66 ± 0.23

Compound	Helicity (%) [3] [%]	IC50 (μM) LO-2, toxicity against normal cells [1] [µM]	IC50 (μM) BEAS-2B, toxicity against normal cells [2] [µM]	IC50 (μM) 293T, toxicity against normal cells [4] [µM]
CC[C@H](C)[C@H](N)C(=O)N[C@@H](CCCCN)C(=O)N[C@@H](CC(C)C)C(=O)N[C@@H](CO)C(=O)N1CCC[C@H]1C(=O)N[C@@H](CCC(=O)O)C(=O)N[C@H](C(=O)N[C@@H](CCCCN)C(=O)N[C@@H](CC(=O)O)C(=O)N[C@@H](CC(N)=O)C(=O)N[C@@H](CC(C)C)C(=O)N[C@@H](CCCCN)C(=O)N[C@@H](CCCCN)C(=O)N[C@H](C(=O)N[C@@H](CC(C)C)C(=O)N[C@@H](CCCCN)C(=O)N[C@]1(C)CCCCCCC=CCCC[C@@](C)(C(=O)N[C@H](C(=O)N[C@@H](C)C(=O)N[C@@H](CCCCN)C(=O)N[C@@H](CCSC)C(=O)N[C@H](C(N)=O)C(C)C)C(C)C)NC(=O)[C@H]([C@@H](C)CC)NC(=O)[C@H](C)NC(=O)CNC(=O)[C@H](CCCCN)NC(=O)[C@H]([C@@H](C)CC)NC(=O)[C@H](C)NC1=O)C(C)C)[C@@H](C)O [H-4] (H-IKLSPETKDNLKKVLK[R8]AIKGAI[S5]VAKMV-NH2; staple 17-24)	66.3	–	–	–
